From the supplement of paper PMC10307832

Tests used:
Assay in all cases: relative viability (nuclei count vs DMSO), 5 days (fraction); higher = more cells survive
NCI-H23 = system: NCI-H23
In short: (§1)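 The day after seeding in 1536-well plates, lung cancer cell lines were treated by pin tool with a single drug, or with a fixed anchor-drug dose together with five library-drug doses (not always all listed) in √10 steps. After 5 days, a combined fix-and-stain solution (final 0.05% Triton X-100, 1% formaldehyde, 1 ug/ml Hoechst) was added. Nuclei counted on 4× images gave relative viability as treated counts over vehicle counts, reported as the median of duplicate plates.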

COR-L23 = system: COR-L23
In short: as §1

NCI-H1944 = system: NCI-H1944
In short: as §1

201T = system: 201T
In short: as §1

LU99A = system: LU99A
In short: as §1

NCI-H838 = system: NCI-H838
In short: as §1

NCI-H1793 = system: NCI-H1793
In short: as §1

NCI-H2347 = system: NCI-H2347
In short: as §1

A-427 = system: A-427
In short: as §1

H3255 = system: H3255
In short: as §1

PC-3 [JPC-3] = system: PC-3 [JPC-3]
In short: as §1

SW 1573 = system: SW 1573
In short: as §1

NCI-H460 = system: NCI-H460
In short: as §1

LCLC-103H = system: LCLC-103H
In short: as §1

LCLC-97TM1 = system: LCLC-97TM1
In short: as §1

LK-2 = system: LK-2
In short: as §1

NCI-H727 = system: NCI-H727
In short: as §1

HCC-44 = system: HCC-44
In short: as §1

NCI-H650 = system: NCI-H650
In short: as §1

PC-14 = system: PC-14
In short: as §1

NCI-H1563 = system: NCI-H1563
In short: as §1

## Oc1nc(-c2ccc(C(F)(F)F)cc2)nc2c1CSCC2 [XAV939] + Cc1nc(NC(=O)N2CCC[C@H]2C(N)=O)sc1-c1ccnc(C(C)(C)C(F)(F)F)c1 [Alpelisib] (partner 2 µM)
NCI-H23; first compound 0.08 µM
  relative viability: 0.663
NCI-H23; first compound 0.253 µM
  relative viability: 0.659
NCI-H23; first compound 0.8 µM
  relative viability: 0.627
NCI-H23; first compound 2.53 µM
  relative viability: 0.456
COR-L23; first compound 0.08 µM
  relative viability: 1
COR-L23; first compound 0.253 µM
  relative viability: 0.73
COR-L23; first compound 0.8 µM
  relative viability: 0.772
COR-L23; first compound 2.53 µM
  relative viability: 0.576
NCI-H1944; first compound 0.08 µM
  relative viability: 0.939
NCI-H1944; first compound 0.253 µM
  relative viability: 0.765
NCI-H1944; first compound 0.8 µM
  relative viability: 0.751
NCI-H1944; first compound 2.53 µM
  relative viability: 0.786
201T; first compound 0.08 µM
  relative viability: 1
201T; first compound 0.253 µM
  relative viability: 0.875
201T; first compound 0.8 µM
  relative viability: 0.947
201T; first compound 2.53 µM
  relative viability: 0.902
LU99A; first compound 0.08 µM
  relative viability: 0.501
LU99A; first compound 0.253 µM
  relative viability: 0.579
LU99A; first compound 0.8 µM
  relative viability: 0.494
LU99A; first compound 2.53 µM
  relative viability: 0.4
NCI-H838; first compound 0.08 µM
  relative viability: 1.08
NCI-H838; first compound 0.253 µM
  relative viability: 0.849
NCI-H838; first compound 0.8 µM
  relative viability: 0.909
NCI-H838; first compound 2.53 µM
  relative viability: 0.604
NCI-H1793; first compound 0.08 µM
  relative viability: 0.589
NCI-H1793; first compound 0.253 µM
  relative viability: 0.59
NCI-H1793; first compound 0.8 µM
  relative viability: 0.697
NCI-H1793; first compound 2.53 µM
  relative viability: 0.708
NCI-H2347; first compound 0.08 µM
  relative viability: 1.08
NCI-H2347; first compound 0.253 µM
  relative viability: 0.97
NCI-H2347; first compound 0.8 µM
  relative viability: 1.05
NCI-H2347; first compound 2.53 µM
  relative viability: 0.926
A-427; first compound 0.08 µM
  relative viability: 1.12
A-427; first compound 0.253 µM
  relative viability: 1.03
A-427; first compound 0.8 µM
  relative viability: 1.03
A-427; first compound 2.53 µM
  relative viability: 1.02
H3255; first compound 0.08 µM
  relative viability: 0.965
H3255; first compound 0.253 µM
  relative viability: 0.709
H3255; first compound 0.8 µM
  relative viability: 0.414
H3255; first compound 2.53 µM
  relative viability: 0.522
PC-3 [JPC-3]; first compound 0.08 µM
  relative viability: 1
PC-3 [JPC-3]; first compound 0.253 µM
  relative viability: 0.962
PC-3 [JPC-3]; first compound 0.8 µM
  relative viability: 1.07
PC-3 [JPC-3]; first compound 2.53 µM
  relative viability: 0.962
SW 1573; first compound 0.08 µM
  relative viability: 0.712
SW 1573; first compound 0.253 µM
  relative viability: 0.552
SW 1573; first compound 0.8 µM
  relative viability: 0.515
SW 1573; first compound 2.53 µM
  relative viability: 0.464
NCI-H460; first compound 0.08 µM
  relative viability: 0.679
NCI-H460; first compound 0.253 µM
  relative viability: 0.36
NCI-H460; first compound 0.8 µM
  relative viability: 0.53
NCI-H460; first compound 2.53 µM
  relative viability: 0.359
LCLC-103H; first compound 0.08 µM
  relative viability: 0.941
LCLC-103H; first compound 0.253 µM
  relative viability: 0.766
LCLC-103H; first compound 0.8 µM
  relative viability: 0.852
LCLC-103H; first compound 2.53 µM
  relative viability: 0.873
LCLC-97TM1; first compound 0.08 µM
  relative viability: 0.256
LCLC-97TM1; first compound 0.253 µM
  relative viability: 0.232
LCLC-97TM1; first compound 0.8 µM
  relative viability: 0.252
LCLC-97TM1; first compound 2.53 µM
  relative viability: 0.243
LK-2; first compound 0.08 µM
  relative viability: 1.03
LK-2; first compound 0.253 µM
  relative viability: 1.02
LK-2; first compound 0.8 µM
  relative viability: 1.1
LK-2; first compound 2.53 µM
  relative viability: 0.923
NCI-H727; first compound 0.08 µM
  relative viability: 0.656
NCI-H727; first compound 0.253 µM
  relative viability: 0.38
NCI-H727; first compound 0.8 µM
  relative viability: 0.626
NCI-H727; first compound 2.53 µM
  relative viability: 0.65
HCC-44; first compound 0.08 µM
  relative viability: 0.953
HCC-44; first compound 0.253 µM
  relative viability: 0.675
HCC-44; first compound 0.8 µM
  relative viability: 0.775
HCC-44; first compound 2.53 µM
  relative viability: 0.737
NCI-H650; first compound 0.08 µM
  relative viability: 1.3
NCI-H650; first compound 0.253 µM
  relative viability: 0.959
NCI-H650; first compound 0.8 µM
  relative viability: 1.15
NCI-H650; first compound 2.53 µM
  relative viability: 0.864
PC-14; first compound 0.08 µM
  relative viability: 1.03
PC-14; first compound 0.253 µM
  relative viability: 0.829
PC-14; first compound 0.8 µM
  relative viability: 0.906
PC-14; first compound 2.53 µM
  relative viability: 0.796
NCI-H1563; first compound 0.08 µM
  relative viability: 0.937
NCI-H1563; first compound 0.253 µM
  relative viability: 0.864
NCI-H1563; first compound 0.8 µM
  relative viability: 0.804
NCI-H1563; first compound 2.53 µM
  relative viability: 0.708
